Data from patent publication US20070232563A1, “Method for Enhancing Biological Activity and/or Expanding Suitable Region for Biological Activity of Living Body Contacting with Aqueous Environment” (Kabushiki Kaisha Hayashibara Seibutsu Kagaku Kenky, priority 2004, published 2007).

System: crucian (Carassium cuvieri)
Test: Removing fishy smell of freshwater fish: activity and sashimi panel
Format: in vivo, Carassius cuvieri
Conditions: macroscopic observation; bred three days; each ingredient 1 (w/v)%
Method: Two per group of living crucian (Carassium cuvieri) with body size in the range of 15 to 20 cm were bred at ambient temperature in an aquarium filled with 10 L of an aqueous solution containing 1 w/v % mineral (solar salt) and 1 w/v % α,α-trehalose or α-maltosyl α,α-trehalose, on a dry solid basis, for three days. Waters containing either of mineral, α,α-trehalose or α-maltosyl α,α-trehalose as references and water without any mineral and saccharides as a control were prepared to breed the fishes similarly as above. The fishes were macroscopically observed their activity, and then prepated into sashimi. Twenty panels were allowed to taste them to judge their flavor and taste (fishy smell) in such a manner of comparing with references by the following four judgment criterions; “good”: no fishy smell; “slightly good”: fishy smell is weaker than the references; “normal”: fishy smell is equal to the references; and “bad”: fishy smell is stronger than the references.

SMILES	Activity of Carassius cuvieri
OC[C@H]1O[C@H](O[C@H]2O[C@H](CO)[C@@H](O)[C@H](O)[C@H]2O)[C@H](O)[C@@H](O)[C@@H]1O [α,α-Trehalose, α,α-trehalose]	Good
OC[C@H]1O[C@H](O[C@H]2O[C@H](CO)[C@@H](O[C@H]3O[C@H](CO)[C@@H](O[C@H]4O[C@H](CO)[C@@H](O)[C@H](O)[C@H]4O)[C@H](O)[C@H]3O)[C@H](O)[C@H]2O)[C@H](O)[C@@H](O)[C@@H]1O [α-Maltosyl α,α-trehalose, α-maltosyl α,α-trehalose]	Good
